# Key:
# [1] = mechanism related to vagal afferent; cited from earlier work
# [2] = rat model of diabetes, hexanoate as sole FA source; cited from earlier work
# [3] = system: human colon microbiome; experiment: In vitro bioreactors inoculated with human feces: chain elongation of acetate with ethanol or lactate to butyrate and caproate; type: cell-based; details: for Methane concentrations: bioreactor headspace, over 7 days, FIG. 4; for Production of MCFAs: pH 6.5 (descending colon), higher concentrations; for SCFA and MCFA production: varied conditions of the large intestine (pH 5.5 and 6.5), FIGS. 6A-6P
# Source text: In microbial chain elongation, acetate, an abundant short-chain fatty acid in the colon, is elongated via reverse β-oxidation using a more reduced compound, such as ethanol or lactate to butyrate, caproate, and caprylate (C8). FIG. 1 depicts known microbial pathways for production of butyrate in the human colon. FIG. 2 depicts a proposed pathway for production of butyrate (and caproate). In vitro bioreactors were setup using feces composited from multiple human donors. Gas composition in the bioreactors' headspace was analyzed for H2, CO2, and CH4 using gas chromatography (GC). The concentrations of volatile fatty acids (VFAs), lactate, ethanol, were measured using high performance liquid chromatography (HPLC). 16S rRNA gene from Bacteria and Archaea was sequenced using the PacBio. The ability of the human colon microbiome to carry out chain elongation reactions was probed in bioreactor experiments. Bioreactors consisted of 120 mL glass serum bottles containing 50 mL of reduced anaerobic mineral medium prepared using the Hungate technique. The medium contained the following stock solutions per liter: 10 mL of salts, 1 mL of trace element A, 1 mL of trace element B, and 1 mL of vitamin mix. Sodium sulfide nonahydrate (0.2 mM) and L-cysteine (0.4 mM) were used as reducing agents. The medium was buffered with 15 mM 4-(2-hydroxyethyl)-1-piperazineethanesulfonic acid (HEPES) and 15 mM sodium bicarbonate. The medium pH was adjusted to 5.5 or 6.5 using a 10 N NaOH solution. The medium was bottled using a gas composition of 20% CO2 and 80% N2. The experimental conditions and controls are shown in Table 1 and were tested in triplicate. The tested concentrations of short-chain fatty acids (60 mM acetate, 20 mM propionate, 20 mM butyrate) are within the typical range detected in the human colon. For ethanol and lactate (electron donors in chain elongation), we tested 4 mM, a low but physiological relevant concentration and a high concentration of 40 mM. The high concentration of ethanol (40 mM) was selected based on existing chain elongation literature (Yin et al. 2017; Coma et al. 2016; […], and Buisman 2008; Robles et al. 2021; Joshi et al. 2021) and was strategically employed to enhance the activity of putative chain-elongating microorganisms. […] The slurry was prepared by mixing one-part reduced anaerobic mineral medium and one-part feces from a composite sample containing fecal samples from multiple healthy donors as described in the Supporting Information. In one condition, the fecal slurry was filtered through a 200 μm filter before inoculation. In condition with 60 mM acetate+40 mM ethanol+MCE culture at pH 6.5, a chain elongation culture derived from soil (Joshi et al. 2021) was also inoculated. The pH was measured using 0.5 mL samples using an OrionTM Versa Star ProTM Benchtop pH Meter (Thermo Scientific, Waltham, MA, USA) equipped with an Orion economy series pH electrode. The pH meter was calibrated with Orion pH 4.01, 7.00, and 10.01 standard solutions. Samples for HPLC consisted of 0.5 mL of supernatant from bioreactors filtered through a 0.2 μm PDVF filter (MDI Membrane Technologies, Harrisburg, PA, USA). The concentrations of formate, acetate, propionate, isobutyrate, butyrate, isovalerate, valerate, isocaproate, caproate, heptanoate, lactate, ethanol, butanol, and hexanol were determined using a high-performance liquid chromatograph (HPLC, Agilent, Santa Clara, CA, USA) with a photodiode array detector (DAD) set at 210 nm and a refractive index detector (RID). The HPLC was fitted with an Aminex HPX-87H column 300×7.8 mm (Bio-Rad Laboratories, Hercules, CA, USA) and operated with an eluent of 2.5 mM H2SO4 at a flow rate of 0.6 mL per minute for a duration of 80 minutes. The oven temperature was constant at […]. The calibration range for fatty acids was 0.25-10 mM, and the calibration range for the alcohols was 2.5-50 mM. […]
# [4] = physiologically relevant concentration of ethanol and lactate, FIGS. 5A and 5B
Structure (SMILES),Efficacy in suppressing food intake (rank order) [1],Methane concentrations [3],Production of MCFAs [3],"Butyrate production via chain elongation [3, 4]",SCFA and MCFA production [3],further results
CC(=O)O [acetate],butyrate>propionate>acetate,,,,,
"CCCCCC(=O)O [caproic, caproic acid]",,,,,,Contractile function of hearts perfused with glucose alone [2]: normalized contractile function
CCO [ethanol],,higher at higher concentrations,significant increase,occurred,successfully increases,"Conversion of acetate and ethanol to butyrate and caproate via chain elongation, time of occurrence ([3]; acetate + ethanol, fecal bioreactors, FIGS. 3A and 3B): within one day; Chain elongation activity with filtered feces ([3]; acetate + ethanol, feces filtered to remove larger particles, FIGS. 3C and 3D): did not affect the chain elongation activity; Caproate production [3, 4]: caproate was produced only when ethanol was the electron donor"
CC(O)C(=O)O (stereo not shown) [lactate],,higher at higher concentrations,significant increase,occurred,successfully increases,"Metabolites produced with lactate as the electron donor ([3]; acetate + lactate, FIG. 3B): metabolic shift was observed towards propionate and butyrate production; Production of butyrate and other SCFAs via chain elongation ([3]; pH 5.5 (ascending colon)): a better substrate"
CCC(=O)O [propionate],butyrate>propionate>acetate,,,,,
